The text below walks through data of US20250282785A1, “PYRROLIDINONE DERIVATIVES AS INHIBITORS OF NF KAPPA B INDUCING KINASE” (priority 2022, published 2025).

pIC50: −log10 of the molar value. Where only a bound is given, the exact number is not on record here.

Assay [1] concerns p-IKKα levels in L363 (NIK translocated multiple myeloma) cells. The assay can be described thus: Effect of compounds on p-IKKα levels in L363 cells (AlphaLISA SureFire Ultra). Type of assay: cell-based. To be noted: Homo sapiens, L-363; L363 cells, BAFF stimulated, MG132, 6 h; average of values; read-out: Assay 2 IC50. As to the method:
Biological Assay 2: Effect of Compounds on p-IKKα Levels in L363 (NIK Translocated Multiple Myeloma) Cells
All compounds tested were dissolved and serially diluted in DMSO, 1:3 dilution for 11 points in an Echo compatible plate. 100% DMSO is added to columns 12 and 24 of the plate to serve as high and low signal controls. This compound plate was used to spot 20 nl of compound or DMSO into a Greiner 384 well TC plate (781080). Final DMSO concentration was […] (v/v) in cell assays. Human L363 cells (ATCC) were cultured in RPMI 1640 medium supplemented with GlutaMax, non-essential amino acids, sodium pyruvate and 10% fetal bovine serum. Cells were routinely maintained at densities of 0.2×10^6 cells per ml −2×10^6 cells per ml at 37° C. in a humidified 5% CO2 atmosphere incubator. Cells were passaged twice a week splitting back to obtain the low density. The day before the assay, cells were washed twice in HBSS, resuspended in DMEM+0.5% IgG and protease free BSA (Jackson Immuno Research Laboratories), +/−250 ng/ml recombinant human B-cell activating factor (BAFF/BLyS/TNFSF13B) and incubated overnight at 37° C. in a humidified 5% CO2 atmosphere (bulk stimulation with or without BAFF). The next day, cell concentration was adjusted to 1×10^7 cells/ml in DMEM+/−250 ng/ml BAFF+/−10 uM MG132 and plated at 10 ul/well into compound or DMSO spotted 384 well TC plates. Seeded cells were incubated at 37° C. in a humidified 5% CO2 atmosphere for 6 h. After 6 h, plates were removed from the incubator and cell lysis was achieved by the addition of 2.5 μl 5× lysis buffer containing protease and phosphatase inhibitors, followed by shaking on a plate shaker at room temperature for 15 min. At the end of this incubation, lysed cells were sequentially treated and incubated with acceptor and donor bead mixes according to the manufacturer's protocol for a 1 plate/2-incubation suspension cell assay (AlphaLISA SureFire Ultra p-IKKα (Ser 176/180) Assay Kit (Perkin ElmeR). Plates were read using an EnVision® Multilabel Plate Reader (Perkin ElmeR). Within an experiment, a concentration response curve for each compound was run in duplicate. Signal obtained in the test wells was normalized using high signal (BAFF stimulated cells, DMSO, MG132) and low signal (unstimulated cells, DMSO) controls. To determine the IC50, a sigmoidal curve was fitted to the plot of % inhibition versus Log10 compound concentration.
(In Alpha technology, singlet oxygen from a donor bead excites a nearby acceptor bead.)

In assay [2] the target is Recombinant Human NF-Kappab-Inducing Kinase (NIK/MAP3K14) (Homo sapiens, UniProt Q99558). The assay can be described thus: Inhibition of auto-phosphorylation of recombinant human NIK/MAP3K14 (AlphaScreen). The class given is biochemical. The settings on record: NIK/MAP3K14 auto-phosphorylation, 5 microM ATP, 1 nM enzyme, 2 h at 25° C.; average of values; read-out: Assay 1 IC50. As for the experimental part: Biological Assay 1: Inhibition of Auto-Phosphorylation of Recombinant Human NF-Kappab-Inducing Kinase (NIK/MAP3K14) Activity (AlphaScreen®)
Chain of Recombinant Human NF-Kappab-Inducing Kinase (NIK/MAP3K14) (Q99558 whole entry): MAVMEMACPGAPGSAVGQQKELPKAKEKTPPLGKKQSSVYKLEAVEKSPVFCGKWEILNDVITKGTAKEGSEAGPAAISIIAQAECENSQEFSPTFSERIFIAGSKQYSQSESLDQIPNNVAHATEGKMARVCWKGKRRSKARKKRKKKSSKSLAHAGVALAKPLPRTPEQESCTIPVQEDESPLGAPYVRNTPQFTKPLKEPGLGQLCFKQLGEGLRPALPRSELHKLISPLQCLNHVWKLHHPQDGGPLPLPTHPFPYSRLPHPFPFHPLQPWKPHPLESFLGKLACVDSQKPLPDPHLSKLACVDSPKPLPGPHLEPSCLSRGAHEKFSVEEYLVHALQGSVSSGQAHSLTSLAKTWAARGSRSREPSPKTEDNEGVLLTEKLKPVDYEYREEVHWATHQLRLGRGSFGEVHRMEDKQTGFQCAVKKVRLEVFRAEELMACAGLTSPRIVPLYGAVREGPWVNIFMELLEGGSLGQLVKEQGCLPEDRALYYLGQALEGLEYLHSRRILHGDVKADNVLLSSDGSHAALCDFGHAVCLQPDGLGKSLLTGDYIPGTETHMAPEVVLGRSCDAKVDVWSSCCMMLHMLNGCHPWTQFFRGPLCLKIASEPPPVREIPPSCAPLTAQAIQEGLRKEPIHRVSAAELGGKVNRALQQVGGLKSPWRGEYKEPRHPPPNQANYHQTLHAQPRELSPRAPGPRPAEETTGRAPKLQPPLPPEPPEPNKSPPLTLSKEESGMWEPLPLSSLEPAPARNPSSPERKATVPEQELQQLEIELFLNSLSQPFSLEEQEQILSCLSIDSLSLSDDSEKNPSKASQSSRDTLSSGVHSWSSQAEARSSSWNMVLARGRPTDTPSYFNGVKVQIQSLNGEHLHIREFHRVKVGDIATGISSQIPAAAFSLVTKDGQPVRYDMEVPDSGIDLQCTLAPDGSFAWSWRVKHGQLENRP
NIK/MAP3K14 auto-phosphorylation activity was measured using the AlphaScreen® ((αscreen) format (Perkin ElmeR). All compounds tested were dissolved in dimethyl sulfoxide (DMSO) and further dilutions were made in assay buffer. Final DMSO concentration was 0.7% (v/v) in assays. Assay buffer was 50 mM Tris pH 7.5 containing 1 mM EGTA (ethylene glycol tetraacetic acid), 1 mM DTT (dithiothreitol), 0.1 mM Na3VO4, 5 mM MgCl2, 0.01% Tween® 20. Assays were carried out in 384 well Proxiplates (Perkin ElmeR). Incubations consisted of compound, 5 microM Adenosine-5′-triphosphate (ATP), and 1 nM NIK/MAP3K14. Incubations were initiated by addition of GST-tagged NIK/MAP3K14 enzyme, carried out for 2 h at 25° C. and terminated by addition of stop buffer containing anti-phospho-IKK Ser176/180 antibody. Protein A Acceptor and Glutathione-donor beads were added before reading using an EnVision® Multilabel Plate Reader (Perkin ElmeR). Signal obtained in the wells was normalized using high (full enzyme activity, 0.7% DMSO) and low controls (no enzyme activity, 0.7% DMSO, no ATP). IC50's were determined by fitting a sigmoidal curve to % inhibition of control versus Log10 compound concentration.

For the molecule `Cc1nc(N)c2nc(-c3cccc(-c4cc([C@]5(O)CCN(C)C5=O)on4)c3)ccc2n1` [Example 1, (R)-3-(3-(3-(4-Amino-2-methylpyrido[3,2-d]pyrimidin-6-yl)phenyl)isoxazol-5-yl)-3-hydroxy-1-methylpyrrolidin-2-one], the pIC50 was 6.30 to 7.00 in assay [1] and over 7.00 in assay [2].

Consider `[2H]c1nc(N)c2nc(-c3cccc(-c4cc([C@]5(O)CCN(C)C5=O)on4)c3)ccc2n1` [Example 2, (R)-3-(3-(3-(4-Aminopyrido[3,2-d]pyrimidin-6-yl-2-d)phenyl)isoxazol-5-yl)-3-hydroxy-1-methylpyrrolidin-2-one], for which the pIC50 is 6.30 to 7.00 in assay [1] and over 7.00 in assay [2].

Consider `Cc1nc(N)c2nc(-c3cccc(-c4cc([C@]5(O)CCN(C)C5=O)no4)c3)ccc2n1` [Example 3, (R)-3-(5-(3-(4-Amino-2-methylpyrido[3,2-d]pyrimidin-6-yl)phenyl)isoxazol-3-yl)-3-hydroxy-1-methylpyrrolidin-2-one], for which the pIC50 is under 6.30 in assay [1] and over 7.00 in assay [2].

Take `CN1CC[C@@](O)(c2cc(-c3cccc(-c4ccc5[nH]nc(N)c5n4)c3)no2)C1=O` [Example 4, (R)-3-(3-(3-(3-Amino-1H-pyrazolo[4,3-b]pyridin-5-yl)phenyl)isoxazol-5-yl)-3-hydroxy-1-methylpyrrolidin-2-one]: the pIC50 in assay [1] is under 6.30; in assay [2], over 7.00.

For the molecule `CN1CC[C@@](O)(c2cc(-c3cccc(-c4ccc5c(n4)c(N)nn5C)c3)no2)C1=O` [Example 5, (R)-3-(3-(3-(3-Amino-1-methyl-1H-pyrazolo[4,3-b]pyridin-5-yl)phenyl)isoxazol-5-yl)-3-hydroxy-1-methylpyrrolidin-2-one], the pIC50 was under 6.30 in assay [1] and 6.30 to 7.00 in assay [2].

As to `CN1CC[C@@](O)(c2cc(-c3cccc(-c4ccc(N)c(C(N)=O)n4)c3)no2)C1=O` [Example 7, (R)-3-Amino-6-(3-(5-(3-hydroxy-1-methyl-2-oxopyrrolidin-3-yl)isoxazol-3-yl)phenyl)picolinamide], the negative-log IC50 (pIC50) in assay [1] and in assay [2] was over 7.00 in each case.

Take `COc1cc(C(N)=O)nc(-c2cccc(-c3cc([C@]4(O)CCN(C)C4=O)on3)c2)c1` [Example 8, (R)-6-(3-(5-(3-Hydroxy-1-methyl-2-oxopyrrolidin-3-yl)isoxazol-3-yl)phenyl)-4-methoxypicolinamide]: the values for the pIC50 in assay [1] and in assay [2] were 6.30 to 7.00 and over 7.00, respectively.

As to `CN1CC[C@@](O)(c2cc(-c3cccc(-c4ncc5ccnc(N)c5n4)c3)no2)C1=O` [Example 10, (R)-3-(3-(3-(8-Aminopyrido[3,4-d]pyrimidin-2-yl)phenyl)isoxazol-5-yl)-3-hydroxy-1-methylpyrrolidin-2-one], the negative-log IC50 (pIC50) is under 6.30 in assay [1] and over 7.00 in assay [2].

Consider `CN1CC[C@@](O)(c2cc(-c3cccc(-c4ccc5ncnc(N6CCC6)c5n4)c3)no2)C1=O` [Example 11, (R)-3-(3-(3-(4-(Azetidin-1-yl)pyrido[3,2-d]pyrimidin-6-yl)phenyl)isoxazol-5-yl)-3-hydroxy-1-methylpyrrolidin-2-one], for which the pIC50 in assay [1] was under 6.30; in assay [2], over 7.00.

Take `Cc1ccc(-c2cc([C@]3(O)CCN(C)C3=O)on2)cc1-c1nc2c(N)ncnc2s1` [Example 12, (R)-3-(3-(3-(7-Aminothiazolo[5,4-d]pyrimidin-2-yl)-4-methylphenyl)isoxazol-5-yl)-3-hydroxy-1-methylpyrrolidin-2-one]: the pIC50 is under 6.30 in assay [1] and over 7.00 in assay [2].

As to `CN1CC[C@@](O)(c2cc(-c3cccc(-c4nc5c(N)ncnc5s4)c3)no2)C1=O` [Example 13, (R)-3-(3-(3-(7-Aminothiazolo[5,4-d]pyrimidin-2-yl)phenyl)isoxazol-5-yl)-3-hydroxy-1-methylpyrrolidin-2-one], the pIC50 in assay [1] was under 6.30; in assay [2], over 7.00.

As for `CN1CC[C@@](O)(c2cn(-c3cccc(-c4cccc(C(N)=O)n4)c3)nn2)C1=O` [Example 14, (R)-6-(3-(4-(3-Hydroxy-1-methyl-2-oxopyrrolidin-3-yl)-1H-1,2,3-triazol-1-yl)phenyl)picolinamide], the pIC50 is under 6.30 in assay [1] and over 7.00 in assay [2].

Take `CN1CC[C@@](O)(c2cn(-c3cccc(-c4nc(C(N)=O)n5ccccc45)c3)nn2)C1=O` [Example 15, (R)-1-(3-(4-(3-Hydroxy-1-methyl-2-oxopyrrolidin-3-yl)-1H-1,2,3-triazol-1-yl)phenyl)imidazo[1,5-a]pyridine-3-carboxamide]: the pIC50 in assay [1] and in assay [2] was over 7.00 in each case.

Regarding `[2H]c1nc(N)c2nc(-c3cccc(-c4cc([C@]5(O)CCN(C)C5=O)no4)c3)ccc2n1` [Example 16, (R)-3-(5-(3-(4-Aminopyrido[3,2-d]pyrimidin-6-yl-2-d)phenyl)isoxazol-3-yl)-3-hydroxy-1-methylpyrrolidin-2-one], the figures for the pIC50 in assay [1] and in assay [2] were 6.30 to 7.00 and over 7.00, respectively.

As to `CN1CC[C@@](O)(c2cc(-c3cccc(-c4ccc5[nH]nc(N)c5n4)c3)on2)C1=O` [Example 17, (R)-3-(5-(3-(3-Amino-1H-pyrazolo[4,3-b]pyridin-5-yl)phenyl)isoxazol-3-yl)-3-hydroxy-1-methylpyrrolidin-2-one], the pIC50 in assay [1] is under 6.30; in assay [2], over 7.00.

On to `CN1CC[C@@](O)(c2cc(-c3cccc(-c4cccc(C(N)=O)n4)c3)on2)C1=O` [Example 18, (R)-6-(3-(3-(3-Hydroxy-1-methyl-2-oxopyrrolidin-3-yl)isoxazol-5-yl)phenyl)picolinamide], for which the results for the pIC50 in assay [1] and in assay [2] were under 6.30 and over 7.00, respectively.

`CN1CC[C@@](O)(c2cc(-c3ccnc(N4CCc5ccnc(N)c5C4)c3)no2)C1=O` [Example 20, (R)-3-(3-(2-(8-Amino-3,4-dihydro-2,7-naphthyridin-2(1H)-yl)pyridin-4-yl)isoxazol-5-yl)-3-hydroxy-1-methylpyrrolidin-2-one]: the figures for the pIC50 in assay [1] and in assay [2] were under 6.30 and 6.30 to 7.00, respectively.

In the case of `COc1cc(C(N)=O)nc(-c2cc(-c3cc([C@]4(O)CCN(C)C4=O)on3)ccn2)c1` [Example 21, (R)-4′-(5-(3-Hydroxy-1-methyl-2-oxopyrrolidin-3-yl)isoxazol-3-yl)-4-methoxy-[2,2′-bipyridine]-6-carboxamide], the pIC50 in assay [1] was under 6.30; in assay [2] it was over 7.00.

In the case of `CN1CC[C@@](O)(c2cc(-c3ccnc(-n4nc(C(N)=O)c5ccccc54)c3)no2)C1=O` [Example 22, (R)-1-(4-(5-(3-Hydroxy-1-methyl-2-oxopyrrolidin-3-yl)isoxazol-3-yl)pyridin-2-yl)-1H-indazole-3-carboxamide], the pIC50 in assay [1] and in assay [2] was over 7.00 each time.

In the case of `CN1CC[C@@](O)(c2cc(-c3cccc(-c4nc(C(N)=O)n5ccccc45)c3)no2)C1=O` [Example 23, (R)-1-(3-(5-(3-Hydroxy-1-methyl-2-oxopyrrolidin-3-yl)isoxazol-3-yl)phenyl)imidazo[1,5-a]pyridine-3-carboxamide], the negative-log IC50 (pIC50) in assay [1] and in assay [2] was over 7.00 each time.

Take `CN1CC[C@@](O)(c2cc(-c3cccc(-c4c[nH]c5ncccc45)c3)no2)C1=O` [Example 24, (R)-3-(3-(3-(1H-Pyrrolo[2,3-b]pyridin-3-yl)phenyl)isoxazol-5-yl)-3-hydroxy-1-methylpyrrolidin-2-one]: the results for the pIC50 in assay [1] and in assay [2] were under 6.30 and 6.30 to 7.00, respectively.

In general, pIC50 refers to −log10 of the IC50, conventionally taken in molar units.
